Measurements from patent publication US4994460A, “Agents for treatment of brain ischemia” (Bristol-Myers Squibb Co., priority 1990, dated 1991).
Counter-ions that a name gives are not always drawn. Like-named read-outs stand apart in the source and are kept apart here.

Key:
hypoxia-induced death = assay: Anoxic Nitrogen Test in Rats (survival after 1 min pure N2); assay type: in vivo, male Sprague-Dawley rats; details: Rattus norvegicus; for ED50: anoxic nitrogen test, 2 hr observation, 95% confidence limits in brackets, read-out: ED50 (19/20 C.L); for responders at 80 mg/kg: 80 mg/kg ip
Source text: Most specifically, administration of the compounds of Formula I results in protecting against hypoxia-induced death in an anoxic nitrogen test in rats. This particular test identifies the neuro-protective effects of substances against lethal brain damages produced by a lack of oxygen consumption (anoxia). In this test procedure, control animals exposed for one minute to a pure nitrogen atmosphere will expire because of respiratory failure caused by irreversible damage to the brain respiratory center.
The animals utilized are male Sprague-Dawley rats (200-240 grams) housed four animals per cage in a normal controlled environment with unlimited access to food and water. Usually there are 8 animals per dose, however, 4 animals can be employed to obtain an initial impression of a compound's activity. Animals surviving the anoxic insult are sacrificed via CO2 inhalation following completion of the observation session (2 hr).
[…] The anoxic episode consists of placing up to 4 animals in the sealed test chamber (10" l×10" w×6" h) continuously flushed with pure N2 (4.5 grade) at a flow rate of 3 SCFM for 1 min. Animals are then promptly removed to normal atmosphere and observed for the 2 hour time period. Typically, animals become disoriented within 15 sec which leads into convulsions at 30 to 35 sec after which they remain motionless.
In spite of the fact that after the N2 exposure the heart is still beating, all control animals fail to gasp when removed from the chamber and usually expire within 3 minutes. Drug treated animals, however, still gasp or start gasping after being removed which is a good indication if an animal will survive the N2 exposure (1).
Results are recorded as: [formula] and are statistically evaluated using the Finney Dose Response program for determination of the ED50 and its corresponding 95% confidence limits.
Compounds of the present invention were rated at each dose level tested using the following rating scale:
+=weak activity (up to 25% survival)
++=moderate activity (25-50% survival)
+++=good activity (51-75% survival)
++++=very good activity (76-100%)

[1] = Wauquier et al., Drug Development Research 8/373-380 (1986); cited from earlier work
[2] = system: animal models of stroke and brain infarction; details: Gotti et al., JPET 247/3, 1211-1221 (1988); cited from earlier work
[3] = ip, Table 2, 40 mg/kg ip, read-out: Rating (survival)
[4] = ip, Table 2, read-out: Rating (survival)
[5] = ip, Table 3, 40 mg/kg i.p. 60 minutes prior to anoxia testing, read-out: Anti-ischemic Rating
[6] = ip, 40 mg/kg ip, read-out: Anti-ischemic Rating

Work on `C[C@]12N[C@H](Cc3ccccc31)c1ccccc12` [(+)MK-801, reference compound] yielded an ED50 (hypoxia-induced death; ip) of 3.1 mg/kg.
For `Fc1ccc(SCCCN2CCN(c3ncc(F)cn3)CC2)cc1` [Example 10, 1-[3-(4-Fluorophenylthio)propyl]-4-(5-fluoro-2-pyrimidinyl) piperazine], the responders at 40 mg/kg (hypoxia-induced death; Table 2, "^ 40^a" mg/kg ip, given 60 minutes prior to anoxia testing, read-out: Rating (survival)) was less than 25%.
In the case of `Fc1cnc(N2CCN(CCCC3OCCO3)CC2)nc1` [Example 11, 1-[3-(1,3-dioxolan-2-yl)propyl]-4-(5-Fluoro-2-pyrimidinyl) piperazine], the responders at 40 mg/kg (hypoxia-induced death; [3]) is reported as less than 25%.
With `O=C(CCCN1CCN(c2ncc(F)cn2)CC1)c1cccs1` [Example 12, 1-(2-Thienyl)-4-[4-(5-fluoro-2-pyrimidinyl)-1-piperazinyl]butanone] the responders at 40 mg/kg (hypoxia-induced death; [3]) was less than 25%.
`O=C(CCCN1CCN(c2ncc(F)cn2)CC1)c1ccc(F)c2ccccc12` [Example 13, 1-(4-Fluoronaphth-1-yl)-4-[4-(5-fluoro-2-pyrimidinyl)-1-piperazinyl]butanon] gave a responders at 40 mg/kg (hypoxia-induced death; [3]) of 25 to 50% and a responders at 80 mg/kg (hypoxia-induced death; [4]) of 76 to 100%.
For `CC(=O)NC(CCCN1CCN(c2ncc(F)cn2)CC1)c1ccc(F)cc1` (centres unmarked) [Example 18, 1-[4-Acetamido-4-(4-fluorophenyl)butyl]-4-(5-fluoro-2-pyrimidinyl)piperazine monohydrochloride], the responders at 40 mg/kg (hypoxia-induced death; [3]) was less than 25%.
Molecule `O=C(NC(CCCN1CCN(c2ncc(F)cn2)CC1)c1ccc(F)cc1)c1ccc(F)cc1` (centres unmarked) [Example 19, 1-[4-(4-Fluorobenzamido)-4-(4-fluorophenyl)butyl]-4-(5-fluoro-2-pyrimidinyl)piperazine] has a responders at 40 mg/kg (hypoxia-induced death; [3]) of 76 to 100%.
For `O=S(=O)(NC(CCCN1CCN(c2ncc(F)cn2)CC1)c1ccc(F)cc1)c1ccc(F)cc1` (centres unmarked) [Example 20, 1-[4-(4-Fluorophenyl)-4-(4-fluorophenylsulfonamido)butyl]-4-(5-fluoro-2-pyrimidinyl)piperazine], the responders at 80 mg/kg (hypoxia-induced death; [4]) was 76 to 100%.
With `O=S(=O)(CCCN1CCN(c2ncc(F)cn2)CC1)c1ccc(F)cc1` [Example 21, 1-[3-(4-Fluorophenylsulfonyl)propyl]-4-(5-fluoro-2-pyrimidinyl)piperazine] the responders at 40 mg/kg (hypoxia-induced death; [3]) was less than 25%.
`OC(CCCN1CCN(c2ncc(F)cn2)CC1)C1CCCCC1` (centres unmarked) [Example 22, 1-Cyclohexyl-4-[4-(5-fluoro-2-pyrimidinyl)-1-piperazinyl]butanol] showed a responders at 80 mg/kg (hypoxia-induced death; [4]) of 51 to 75%.
For `OC(CCCN1CCN(c2ncc(F)cn2)CC1)c1ccc(F)c2ccccc12` (centres unmarked) [Example 23, 1-(4-Fluoronaphth-1-yl)-4-[4-(5-fluoro-2-pyrimidinyl)-1-piperazinyl]butanol], the responders at 100 mg/kg (hypoxia-induced death; ip, Table 2, 100 mg/kg ip, read-out: Rating (survival)) was 76 to 100%.
`O=C(NC(CCCN1CCN(c2ncc(F)cn2)CC1)c1ccc(F)c2ccccc12)c1ccc(F)cc1` (centres unmarked) [Example 26] showed a responders at 40 mg/kg (hypoxia-induced death; [5]) of 25 to 50%.
Work on `Fc1cnc(N2CCN(CCCCc3ccc(F)c4ccccc34)CC2)nc1` [Example 28] yielded a responders at 40 mg/kg (hypoxia-induced death; [5]) of 51 to 75%.
In the case of `O=S(=O)(NC(CCCN1CCN(c2ncc(F)cn2)CC1)C1CCCCC1)c1ccc(F)cc1` (centres unmarked) [Example 30], the responders at 40 mg/kg (hypoxia-induced death; [5]) is reported as 25 to 50%.
In the case of `Fc1cnc(N2CCN(CCCCC3CCCCC3)CC2)nc1` [Example 31], the responders at 40 mg/kg (hypoxia-induced death; [5]) is reported as 25 to 50%.
Molecule `OC(CCCN1CCN(c2ncc(F)cn2)CC1)(c1ccc(F)cc1)C1CCCCC1` (centres unmarked) [Example 37, 1-Cyclohexyl-1-(4-fluorophenyl)-4-(4-(5-fluoro-2-pyrimidinyl)-1-piperazinyl)-1-butanol] has a responders at 40 mg/kg (hypoxia-induced death; [6]) of 51 to 75%.
`O=C(OC(CCCN1CCN(c2ncc(F)cn2)CC1)c1ccc(F)cc1)c1ccc(F)cc1` (centres unmarked) [Example 39, 1-(4-Fluorophenyl)-4-(4-(5-fluoro-2-pyrimidinyl)-1-piperazinyl)-1-butyl 4-fluorobenzoate hydrochloride] gave a responders at 40 mg/kg (hypoxia-induced death; [6]) of 51 to 75%.
With `[N-]=[N+]=NC(CCCN1CCN(c2ncc(F)cn2)CC1)c1ccc(F)c2ccccc12` (centres unmarked) [Example 40, 1-(4-Azido-4-(4-fluoro-1-naphthyl)-1-butyl)-4-(5-fluoro-2-pyrimidinyl)piperazine monohydrochloride] the responders at 40 mg/kg (hypoxia-induced death; [6]) was 25 to 50%.
For `NC(CCCN1CCN(c2ncc(F)cn2)CC1)c1ccc(F)c2ccccc12` (centres unmarked) [Example 41, 1-(4-Fluoro-1-naphthyl)-4-(4-(5-fluoro-2-pyrimidinyl)-1-piperazinyl) butylamine hydrochloride], the responders at 40 mg/kg (hypoxia-induced death; [6]) was 76 to 100%.
Molecule `COC(CCCN1CCN(c2ncc(F)cn2)CC1)c1ccc(F)cc1` (centres unmarked) [Example 42, 1-[4-(4-Fluorophenyl)-4-methoxybutyl]-4-(5-fluoropyrimidin-2-yl) piperazine hydrochloride] has a responders at 40 mg/kg (hypoxia-induced death; [6]) of 25 to 50%.
`O=C(NC(CCCN1CCN(c2ncc(F)cn2)CC1)c1ccc(F)cc1)c1ccccc1` (centres unmarked) [Example 43] showed a responders at 40 mg/kg (hypoxia-induced death; [5]) of 25 to 50%.
With `O=C(NC(CCCN1CCN(c2ncc(F)cn2)CC1)c1ccc(F)cc1)c1ccc(F)c2ccccc12` (centres unmarked) [Example 44] the responders at 40 mg/kg (hypoxia-induced death; [5]) was 25 to 50%.
With `O=S(=O)(NC(CCCN1CCN(c2ncc(F)cn2)CC1)c1ccc(F)c2ccccc12)c1ccc(F)cc1` (centres unmarked) [Example 45] the responders at 40 mg/kg (hypoxia-induced death; [5]) was less than 25%.
`O=C(OC(CCCN1CCN(c2ncc(F)cn2)CC1)c1ccc(F)cc1)c1ccccc1` (centres unmarked) [Example 46] gave a responders at 40 mg/kg (hypoxia-induced death; [5]) of 25 to 50%.
With `Fc1ccc(CCN2CCN(c3ncc(F)cn3)CC2)cc1` [Example 47] the responders at 40 mg/kg (hypoxia-induced death; [5]) was less than 25%.
For `O=C(CCCN1CCN(c2ncc(F)cn2)CC1)C1CCCCC1` [Example 48], the responders at 40 mg/kg (hypoxia-induced death; [5]) was 76 to 100%.
Work on `O=C(NC(CCCN1CCN(c2ncc(F)cn2)CC1)C1CCCCC1)c1ccc(F)cc1` (centres unmarked) [Example 49] yielded a responders at 40 mg/kg (hypoxia-induced death; [5]) of less than 25%.
For `CN(c1nc2ccccc2s1)C1CCN(CC(O)COc2ccc(F)cc2)CC1` (centres unmarked) [Sabeluzole], the anticonvulsant properties [1] is listed as “anticonvulsant properties”, the antihypoxic activity [1] is listed as “potent antihypoxic agent” and the ED50 (hypoxia-induced death; ip) is listed as 4.7 mg/kg.
For `CC(C(O)c1ccc(O)cc1)N1CCC(Cc2ccccc2)CC1` (centres unmarked) [ifenprodil], the tissue sparing [2] is given as “effective in tissue sparing”.
